# Measured values from PubChem BioAssay (NCI).
#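 Where inhibition never reached the appropriate level, the endpoint shown equals the highest concentration tested. Otherwise, values were interpolated linearly from a five-concentration, 48-hour dose response in 96-well plates. TGI marks complete inhibition of growth.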
# Experiments:
# Assay in all cases: NCI anticancer screen, dose series, 48 h
# [1] = test system: OVCAR-8 ovarian
# [2] = test system: UACC-62 melanoma
# [3] = test system: RPMI-8226 leukemia
# [4] = test system: K-562 leukemia
# [5] = test system: HT29 colon
# [6] = test system: IGROV1 ovarian
# [7] = test system: MOLT-4 leukemia
# [8] = test system: U251 CNS
# [9] = test system: SF-295 CNS
# [10] = test system: SN12C renal
# [11] = test system: UACC-257 melanoma
# [12] = test system: KM20L2 colon
# [13] = test system: ACHN renal
# [14] = test system: NCI-H460 lung
# [15] = test system: DMS 114 small cell lung
# [16] = test system: SK-OV-3 ovarian
# [17] = test system: A549 NSCLC
# [18] = test system: CCRF-CEM leukemia
# [19] = test system: OVCAR-3 ovarian
# [20] = test system: OVCAR-4 ovarian
# [21] = test system: SF-268 CNS
# [22] = test system: OVCAR-5 ovarian
# [23] = test system: RXF-631 renal
# [24] = test system: TK-10 renal
# [25] = test system: M14 melanoma
# [26] = test system: SNB-19 CNS
# [27] = test system: SK-MEL-2 melanoma
# [28] = test system: COLO 205 colon
# [29] = test system: EKVX NSCLC
# [30] = test system: NCI-H23 lung
# [31] = test system: CAKI-1 renal
# [32] = test system: HOP-62 NSCLC
# [33] = test system: SK-MEL-28 melanoma
# [34] = test system: XF 498 CNS
# [35] = test system: SF-539 CNS
# [36] = test system: M19-MEL melanoma
# [37] = test system: NCI-H226 lung
# [38] = test system: KM12 colon
# [39] = test system: LOX IMVI melanoma
# [40] = test system: SNB-75 CNS
# [41] = test system: NCI-H522 lung
# [42] = test system: HCT-15 colon
# [43] = test system: 786-0 renal
# [44] = test system: LXFL 529 NSCLC
# [45] = test system: HCT-116 colon
# [46] = test system: SK-MEL-5 melanoma
# [47] = test system: MALME-3M melanoma
# [48] = test system: DMS 273 small cell lung
# [49] = test system: DLD-1 colon
# [50] = test system: HCC-2998 colon
# [51] = test system: SW-620 colon
# [52] = test system: UO-31 renal
# [53] = test system: RXF 393 renal
# [54] = test system: SNB-78 CNS
# [55] = test system: A498 renal
# [56] = test system: HL-60(TB) leukemia
# [57] = test system: SR leukemia
# [58] = test system: HOP-18 NSCLC
# [59] = test system: HOP-92 NSCLC
smiles,measurement,setting,value
NC(N)NCCCc1cn2c(n1)C1CCCN1C(=O)C2Cc1ccccc1 (stereo not drawn),TGI,[1],> 100 µM
same,TGI,[2],> 100 µM
same,TGI,[3],> 100 µM
same,TGI,[4],> 100 µM
same,TGI,[5],> 100 µM
same,TGI,[6],> 100 µM
same,TGI,[7],> 100 µM
same,TGI,[8],> 100 µM
same,TGI,[9],> 100 µM
same,TGI,[10],> 100 µM
same,TGI,[11],> 100 µM
same,TGI,[12],> 100 µM
same,TGI,[13],> 100 µM
same,TGI,[14],> 100 µM
same,TGI,[15],> 100 µM
same,TGI,[16],> 100 µM
same,TGI,[17],> 100 µM
same,TGI,[18],> 100 µM
same,TGI,[19],> 100 µM
same,TGI,[20],> 100 µM
same,TGI,[21],> 100 µM
same,TGI,[22],> 100 µM
same,TGI,[23],> 100 µM
same,TGI,[24],> 100 µM
same,TGI,[25],> 100 µM
same,TGI,[26],> 100 µM
same,TGI,[27],> 100 µM
same,TGI,[28],> 100 µM
same,TGI,[29],> 100 µM
same,TGI,[30],> 100 µM
same,TGI,[31],> 100 µM
same,TGI,[32],> 100 µM
same,TGI,[33],> 100 µM
same,TGI,[34],> 100 µM
same,TGI,[35],> 100 µM
same,TGI,[36],> 100 µM
same,TGI,[37],> 100 µM
same,TGI,[38],> 100 µM
same,TGI,[39],> 100 µM
same,TGI,[40],> 100 µM
same,TGI,[41],> 100 µM
same,TGI,[42],> 100 µM
same,TGI,[43],> 100 µM
same,TGI,[44],> 100 µM
same,TGI,[45],> 100 µM
same,TGI,[46],> 100 µM
same,TGI,[47],> 100 µM
same,TGI,[48],> 100 µM
same,TGI,[49],> 100 µM
same,TGI,[50],> 100 µM
same,TGI,[51],> 100 µM
same,TGI,[52],> 100 µM
same,TGI,[53],> 100 µM
same,TGI,[54],> 100 µM
same,TGI,[55],> 100 µM
CC(C)(CN1CCCCC1)C(=O)/C=C/c1ccccc1,TGI,[1],49.5 µM
same,TGI,[2],53.2 µM
same,TGI,[3],38.3 µM
same,TGI,[4],24.9 µM
same,TGI,[5],36.4 µM
same,TGI,[6],86.6 µM
same,TGI,[7],41.4 µM
same,TGI,[8],57 µM
same,TGI,[9],35.1 µM
same,TGI,[10],42.3 µM
same,TGI,[11],46.8 µM
same,TGI,[12],28.1 µM
same,TGI,[13],96.6 µM
same,TGI,[14],66.9 µM
same,TGI,[15],42 µM
same,TGI,[16],57.3 µM
same,TGI,[17],52.7 µM
same,TGI,[18],35.4 µM
same,TGI,[19],21.6 µM
same,TGI,[20],73.9 µM
same,TGI,[21],36.8 µM
same,TGI,[22],40.4 µM
same,TGI,[23],59 µM
same,TGI,[24],30.5 µM
same,TGI,[25],34.7 µM
same,TGI,[26],34.6 µM
same,TGI,[27],28.9 µM
same,TGI,[28],40.9 µM
same,TGI,[29],35.2 µM
same,TGI,[30],33.7 µM
same,TGI,[31],48 µM
same,TGI,[32],61.3 µM
same,TGI,[33],33 µM
same,TGI,[34],29.9 µM
same,TGI,[35],22.9 µM
same,TGI,[36],52.3 µM
same,TGI,[37],69.8 µM
same,TGI,[38],28.9 µM
same,TGI,[39],41.3 µM
same,TGI,[40],39.3 µM
same,TGI,[41],26.8 µM
same,TGI,[42],67.2 µM
same,TGI,[43],27.3 µM
same,TGI,[44],34.7 µM
same,TGI,[45],28.6 µM
same,TGI,[46],25.8 µM
same,TGI,[47],30.3 µM
same,TGI,[48],36.5 µM
same,TGI,[49],54.1 µM
same,TGI,[50],27.9 µM
same,TGI,[51],27.8 µM
same,TGI,[52],39.6 µM
same,TGI,[53],24.7 µM
same,TGI,[54],80.9 µM
same,TGI,[55],57.8 µM
O=S1OC(c2ccccc2)(c2ccccc2)C(c2ccccc2)(c2ccccc2)O1,TGI,[1],> 100 µM
same,TGI,[2],> 100 µM
same,TGI,[3],> 49.4 µM
same,TGI,[4],> 100 µM
same,TGI,[5],> 100 µM
same,TGI,[6],> 100 µM
same,TGI,[7],> 100 µM
same,TGI,[8],> 100 µM
same,TGI,[9],> 100 µM
same,TGI,[10],> 100 µM
same,TGI,[11],> 100 µM
same,TGI,[12],> 100 µM
same,TGI,[13],> 100 µM
same,TGI,[14],> 100 µM
same,TGI,[15],> 100 µM
same,TGI,[16],> 100 µM
same,TGI,[17],> 100 µM
same,TGI,[18],> 100 µM
same,TGI,[19],> 100 µM
same,TGI,[20],> 100 µM
same,TGI,[21],> 100 µM
same,TGI,[22],> 100 µM
same,TGI,[23],> 100 µM
same,TGI,[24],> 100 µM
same,TGI,[25],> 100 µM
same,TGI,[26],> 100 µM
same,TGI,[28],> 100 µM
same,TGI,[29],> 100 µM
same,TGI,[30],> 100 µM
same,TGI,[32],> 100 µM
same,TGI,[33],> 100 µM
same,TGI,[56],> 100 µM
same,TGI,[34],> 100 µM
same,TGI,[35],> 100 µM
same,TGI,[36],> 100 µM
same,TGI,[37],> 100 µM
same,TGI,[38],> 100 µM
same,TGI,[39],> 100 µM
same,TGI,[40],> 100 µM
same,TGI,[41],> 100 µM
same,TGI,[42],> 100 µM
same,TGI,[43],> 100 µM
same,TGI,[44],> 100 µM
same,TGI,[45],> 100 µM
same,TGI,[46],> 100 µM
same,TGI,[57],> 100 µM
same,TGI,[47],> 100 µM
same,TGI,[48],> 100 µM
same,TGI,[49],> 100 µM
same,TGI,[50],> 100 µM
same,TGI,[51],> 100 µM
same,TGI,[52],> 100 µM
same,TGI,[58],> 100 µM
same,TGI,[53],> 100 µM
same,TGI,[59],> 100 µM
same,TGI,[54],> 100 µM
same,TGI,[55],> 100 µM
CC1(OCc2ccccc2)C(=O)N2C1NCC2(C)C (stereo not drawn),TGI,[1],> 100 µM
same,TGI,[2],> 100 µM
same,TGI,[3],> 100 µM
same,TGI,[4],> 100 µM
same,TGI,[5],> 100 µM
same,TGI,[6],> 100 µM
same,TGI,[7],> 100 µM
same,TGI,[8],> 100 µM
same,TGI,[9],> 100 µM
same,TGI,[10],> 100 µM
same,TGI,[11],> 100 µM
same,TGI,[12],> 100 µM
same,TGI,[13],> 100 µM
same,TGI,[14],> 100 µM
same,TGI,[15],> 100 µM
same,TGI,[17],> 100 µM
same,TGI,[18],> 100 µM
same,TGI,[19],> 100 µM
same,TGI,[20],> 100 µM
same,TGI,[21],> 100 µM
same,TGI,[23],> 100 µM
same,TGI,[24],> 100 µM
same,TGI,[25],> 100 µM
same,TGI,[26],> 100 µM
same,TGI,[27],> 100 µM
same,TGI,[28],> 100 µM
same,TGI,[29],> 100 µM
same,TGI,[30],> 100 µM
same,TGI,[32],> 100 µM
same,TGI,[33],> 100 µM
same,TGI,[56],> 100 µM
same,TGI,[34],> 100 µM
same,TGI,[35],> 100 µM
same,TGI,[36],> 100 µM
same,TGI,[37],> 100 µM
same,TGI,[39],> 100 µM
same,TGI,[40],> 100 µM
same,TGI,[42],> 100 µM
same,TGI,[43],> 100 µM
same,TGI,[44],> 100 µM
same,TGI,[45],> 100 µM
same,TGI,[46],> 100 µM
same,TGI,[57],> 100 µM
same,TGI,[47],> 100 µM
same,TGI,[48],> 100 µM
same,TGI,[49],> 100 µM
same,TGI,[50],> 100 µM
same,TGI,[51],> 100 µM
same,TGI,[52],> 100 µM
same,TGI,[53],> 100 µM
same,TGI,[55],> 100 µM
